From US20110039825A1, “LIGANDS OF ALPHA-ADRENOCEPTORS, DOPAMINE, HISTAMINE, IMIDAZOLINE AND SEROTONIN RECEPTORS AND THEIR USE” (Alla Chem, LLC, priority 2007, published 2011)

How the values were obtained:
[1] = system: male mice of BALB/c line; assay: Passive Avoidance of mice in the Shuttle Chamber, memory disturbed by Scopolamine; type: in vivo; details: Scopolamine 0.3 mg/kg
Description: A shuttle chamber (Ugo Basile, Italy) consisted of two sections was used. […] The sections were connected through a hole which could be overlapped by a vertical door. The floor was made of transverse metal bars on which DC current impulses could be fed. Experiments were carried out in aged male mice of BALB/c line weighing 20-24 grams.
Each group consisted of at least 8 animals. Animal was placed in light section, and latent period of the first entry into dark chamber was registered. Then the vertical door was closed and the animal was punished by 0.6 mA DC current for 3 seconds. After that it was taken back to its homecage. In 22-24 hours the same animal was placed again in light section of the shuttle chamber and latent period of its first entry into dark section, the total time of its stay in light section, and the number of entries into dark section, were registered. Each monitoring lasted for 5 minutes.
Testing was carried out during the day time in isolated laboratory using white noise at level of about 70 decibel above human hearing threshold.
Scopolamine causes the disturbance of training (memory loss) that results in […].

[2] = molecular target: T1, recombinant human 5-HT6 receptor (Homo sapiens, UniProt P50406); assay: radioligand binding to serotonin receptor 5-HT6 ([3H] Lysergic acid diethylamide); details: 10 μM ligand
T1 construct: expressed in transfected cells; host or cells: HeLa
Text: Mol. Pharmacol. 43:320-327, 1993]. […] Methiothepin is used as positive control.

[3] = molecular target: T2, recombinant human 5-HT1A (Homo sapiens, UniProt P08908); assay: radioligand binding to serotonin receptor 5-HT1A ([3H] 8-OH-DPAT); details: 10 μM ligand
T2 construct: expressed in transfected cells; host or cells: CHO
T2 sequence (P08908 1-422): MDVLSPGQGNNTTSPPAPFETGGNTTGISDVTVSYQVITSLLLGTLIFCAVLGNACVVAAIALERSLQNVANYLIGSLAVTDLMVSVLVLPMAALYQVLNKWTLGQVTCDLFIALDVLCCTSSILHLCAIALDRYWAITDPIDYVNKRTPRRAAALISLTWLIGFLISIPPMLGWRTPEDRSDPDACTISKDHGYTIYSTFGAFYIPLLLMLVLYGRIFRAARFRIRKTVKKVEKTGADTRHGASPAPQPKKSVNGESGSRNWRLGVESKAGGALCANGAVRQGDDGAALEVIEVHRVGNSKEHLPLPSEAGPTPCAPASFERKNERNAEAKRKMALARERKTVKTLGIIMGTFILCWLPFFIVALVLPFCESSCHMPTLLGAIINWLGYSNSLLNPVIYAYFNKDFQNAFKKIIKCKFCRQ
Text: J Pharmacol Exp Ther. 306(1): 301-309, 2003]. […] Metergoline is used as positive control.

T1 sequence (P50406 whole entry): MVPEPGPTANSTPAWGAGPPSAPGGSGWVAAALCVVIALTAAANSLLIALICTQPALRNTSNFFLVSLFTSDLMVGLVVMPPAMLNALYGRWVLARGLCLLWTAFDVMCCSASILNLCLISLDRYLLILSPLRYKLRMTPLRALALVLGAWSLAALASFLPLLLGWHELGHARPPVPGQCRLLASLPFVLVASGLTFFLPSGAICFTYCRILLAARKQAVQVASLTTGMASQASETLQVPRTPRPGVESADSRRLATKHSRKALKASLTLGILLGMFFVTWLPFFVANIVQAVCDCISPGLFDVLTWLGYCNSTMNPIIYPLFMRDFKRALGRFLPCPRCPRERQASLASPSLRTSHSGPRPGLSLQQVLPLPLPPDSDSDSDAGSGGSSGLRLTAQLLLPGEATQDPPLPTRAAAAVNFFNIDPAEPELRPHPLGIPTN

Structure (SMILES) | enhancement of memory disturbed by Scopolamine (passive avoidance) [1] | 5-HT6 % inhibition [2] [%] | 5-HT1A % inhibition [3] [%]
COc1ccc2c(c1)c1c(n2CCc2ccccn2)CCN(C)C1.Cl.Cl [1.1.2(2-4)•2HCl] | improve memory | – | –
Cc1ccc2c(c1)c1c(n2CCc2ccncc2)CCN(C)C1.Cl.Cl [1.1.2(5-2)•2HCl] | improve memory | 91 | 17
